Converted amounts (≈) assume the structure as drawn. Read-outs that look alike come from different tables or passages of the source.
Legend:
Assay type in all cases: cell-based
[1] = system: Viridans streptococci; assay: MIC, CLSI broth microdilution, clinical isolates; conditions: Viridans streptococci (N = 156)
[2] = system: Staphylococcus hominis; assay: MIC, CLSI broth microdilution, clinical isolates; conditions: Staphylococcus hominis (N = 50)
[3] = system: Streptococcus agalactiae; assay: MIC, CLSI broth microdilution, clinical isolates; conditions: Streptococcus agalactiae (N = 100)
[4] = system: Streptococcus pneumoniae; assay: MIC, CLSI broth microdilution, clinical isolates
[5] = system: Staphylococcus epidermidis; assay: MIC, CLSI broth microdilution, clinical isolates; conditions: for MIC50: Staphylococcus epidermidis
[6] = system: Moraxella catarrhalis; assay: MIC, CLSI broth microdilution, clinical isolates; conditions: Moraxella catarrhalis (N = 101)
[7] = system: Staphylococcus warneri; assay: MIC, CLSI broth microdilution, clinical isolates; conditions: Staphylococcus warneri (N = 50)
[8] = system: Streptococcus pyogenes; assay: MIC, CLSI broth microdilution, clinical isolates; conditions: Streptococcus pyogenes (N = 101)
[9] = system: Staphylococcus haemolyticus; assay: MIC, CLSI broth microdilution, clinical isolates; conditions: Staphylococcus haemolyticus (N = 101)
[10] = system: S. aureus; assay: MIC of clinical trial isolates, Studies 373, 433, 434; conditions: Staphylococcus aureus
[11] = system: Staphylococcus aureus; assay: MIC, CLSI broth microdilution, clinical isolates; conditions: for MIC50 / MIC90: Staphylococcus aureus
[12] = system: Lancefield group C, F, G streptococci; assay: MIC, CLSI broth microdilution, clinical isolates; conditions: G streptococci (N = 50)
[13] = system: Morganella morganii; assay: MIC, CLSI broth microdilution, clinical isolates; conditions: Morganella morganii (N = 51)
[14] = system: Citrobacter koseri; assay: MIC, CLSI broth microdilution, clinical isolates; conditions: Citrobacter koseri (N = 100)
[15] = system: Klebsiella oxytoca; assay: MIC, CLSI broth microdilution, clinical isolates; conditions: Klebsiella oxytoca (N = 50)
[16] = system: Staphylococcus lugdunensis; assay: MIC, CLSI broth microdilution, clinical isolates; conditions: Staphylococcus lugdunensis (N = 15)
[17] = system: Staphylococcus saprophyticus; assay: MIC, CLSI broth microdilution, clinical isolates; conditions: Staphylococcus saprophyticus (N = 101)
[18] = system: S. epidermidis; assay: MIC of clinical trial isolates, Studies 373, 433, 434; conditions: Staphylococcus epidermidis, read-out: MIC90
[19] = system: Anaerobic Bacteria; assay: MIC against anaerobic bacteria (Table 7)
[20] = system: Haemophilus influenzae; assay: MIC, CLSI broth microdilution, clinical isolates; conditions: for MIC50 / MIC90: Haemophilus influenzae
[21] = system: Legionella pneumophila; assay: microbe, parasite or virus in culture
[22] = Streptococcus pneumoniae (PISP, N = 2)
[23] = Streptococcus pneumoniae (PRSP, N = 2)
[24] = Streptococcus pneumoniae (PSSP, N = 31)
[25] = Streptococcus pneumoniae (all phenotypes, N = 35)
[26] = Staphylococcus epidermidis (CNS, N = 6)
[27] = Staphylococcus epidermidis (CS, N = 9)
[28] = Staphylococcus epidermidis (MSSE, N = 6)
[29] = Staphylococcus epidermidis (all phenotypes, N = 15)
[30] = Staphylococcus aureus (CNS, N = 16)
[31] = Staphylococcus aureus (CS, N = 14)
[32] = Staphylococcus aureus (all phenotypes, N = 30)
[33] = MRSA, Staphylococcus aureus (MRSA, N = 11)
[34] = MSSA, Staphylococcus aureus (MSSA, N = 19)
[35] = Clostridium perfringens, Clostridium perfringens (N = 21)
[36] = Haemophilus influenzae (all phenotypes, N = 40)
[37] = Haemophilus influenzae (bla negative, N = 24)
[38] = Haemophilus influenzae (bla positive, N = 16)

COc1c(N2CCNC(C)C2)c(F)cc2c(=O)c(C(=O)O)cn(C3CC3)c12 (centres unmarked) [Gatifloxacin]
MIC Range [1]: 0.03 to 8 µg/mL | MIC50 ([1]; read-out: MIC50): 0.25 µg/mL (≈ 0.666 µM) | MIC90 ([1]; read-out: MIC90): 0.5 µg/mL (≈ 1.33 µM) | % S [2]: 32.0% | MIC50 [2]: 1 µg/mL (≈ 2.66 µM) | MIC90 [2]: 4 µg/mL (≈ 10.7 µM) | % S [3]: 100.0% | MIC Range [3]: 0.12 to 1 µg/mL | MIC50 ([3]; read-out: MIC50): 0.25 µg/mL (≈ 0.666 µM) | MIC90 ([3]; read-out: MIC90): 0.25 µg/mL (≈ 0.666 µM) | % S [4, 22]: 100.0% | MIC Range [4, 22]: 0.25-0.25 μg/mL | % S [4, 23]: 100.0% | MIC Range [4, 23]: 0.12 to 0.25 µg/mL | % S [4, 24]: 96.8% | MIC50 [4, 24]: 0.12 µg/mL (≈ 0.32 µM) | MIC90 [4, 24]: 0.25 µg/mL (≈ 0.666 µM) | MIC Range [4, 24]: 0.015 to 4 µg/mL | % S [4, 25]: 97.1% | MIC Range [4, 25]: 0.015 to 4 µg/mL | MIC50 ([4]; Streptococcus pneumoniae (all phenotypes, N = 35), read-out: MIC50): 0.12 µg/mL (≈ 0.32 µM) | MIC90 ([4]; Streptococcus pneumoniae (all phenotypes, N = 35), read-out: MIC90): 0.25 µg/mL (≈ 0.666 µM) | % S [5, 26]: 50.0% | % S [5, 27]: 100.0% | MIC Range [5, 27]: 0.06-0.06 μg/mL | % S ([5]; Staphylococcus epidermidis (MRSE, N = 9)): 44.4% | % S [5, 28]: 83.3% | MIC Range [5, 28]: 0.06 to 1 µg/mL | % S [5, 29]: 60.0% | MIC90 [5, 29]: > 8 µg/mL | MIC50 ([5]; MRSE, Staphylococcus epidermidis (MRSE, N = 9)): 1 µg/mL (≈ 2.66 µM) | MIC50 [5, 26]: 1 µg/mL (≈ 2.66 µM) | MIC50 [5, 27]: 0.06 µg/mL (≈ 0.16 µM) | MIC50 [5, 28]: 0.06 µg/mL (≈ 0.16 µM) | MIC50 [5, 29]: 0.06 µg/mL (≈ 0.16 µM) | MIC50 [6]: 0.015 µg/mL (≈ 0.04 µM) | MIC90 [6]: 0.015 µg/mL (≈ 0.04 µM) | MIC Range [6]: 0.008 to 0.25 µg/mL | % S [7]: 76.0% | MIC50 [7]: 0.12 µg/mL (≈ 0.32 µM) | MIC90 [7]: 4 µg/mL (≈ 10.7 µM) | % S [8]: 100.0% | MIC Range [8]: 0.06 to 0.5 µg/mL | MIC50 ([8]; read-out: MIC50): 0.12 µg/mL (≈ 0.32 µM) | MIC90 ([8]; read-out: MIC90): 0.25 µg/mL (≈ 0.666 µM) | % S [9]: 40.6% | MIC50 [9]: 2 µg/mL (≈ 5.33 µM) | MIC90 [9]: 8 µg/mL (≈ 21.3 µM) | MIC90 ([10]; MRSA, S. aureus MRSA-CR, N 17, read-out: MIC90): > 8 µg/mL | MIC90 ([10]; MRSA, S. aureus MRSA-CS, N 9, read-out: MIC90 (due to limited isolates, highest MIC value is given)): 0.25 µg/mL | MIC90 ([10]; MSSA, S. aureus MSSA-CR, N 17, read-out: MIC90): > 8 µg/mL | MIC90 ([10]; MSSA, S. aureus MSSA-CS, N 144, read-out: MIC90): 0.25 µg/mL | % S [11, 30]: 6.3% | % S [11, 31]: 92.9% | MIC Range [11, 31]: 0.03 to 1 µg/mL | % S ([11]; Staphylococcus aureus (MRSA, N = 11)): 18.2% | % S ([11]; Staphylococcus aureus (MSSA, N = 19)): 63.2% | % S [11, 32]: 46.7% | MIC50 [11, 33]: 2 µg/mL (≈ 5.33 µM) | MIC90 [11, 33]: > 8 µg/mL | MIC50 [11, 34]: 0.06 µg/mL (≈ 0.16 µM) | MIC90 [11, 34]: 2 µg/mL (≈ 5.33 µM) | MIC50 [11, 30]: 2 µg/mL (≈ 5.33 µM) | MIC90 [11, 30]: > 8 µg/mL | MIC50 [11, 31]: 0.06 µg/mL (≈ 0.16 µM) | MIC90 [11, 31]: 0.25 µg/mL (≈ 0.666 µM) | MIC50 [11, 32]: 1 µg/mL (≈ 2.66 µM) | MIC90 [11, 32]: > 8 µg/mL | % S [12]: 98.0% | MIC Range [12]: 0.06 to 2 µg/mL | MIC50 ([12]; read-out: MIC50): 0.12 µg/mL (≈ 0.32 µM) | MIC90 ([12]; read-out: MIC90): 0.25 µg/mL (≈ 0.666 µM) | % S [13]: 74.5% | MIC50 [13]: 0.12 µg/mL (≈ 0.32 µM) | MIC90 [13]: > 8 µg/mL | % S [14]: 99.0% | MIC50 [14]: 0.015 µg/mL (≈ 0.04 µM) | MIC90 [14]: 0.12 µg/mL (≈ 0.32 µM) | % S [15]: 92.0% | MIC50 [15]: 0.03 µg/mL (≈ 0.0799 µM) | MIC90 [15]: 0.5 µg/mL (≈ 1.33 µM) | MIC Range [15]: 0.015 to 8 µg/mL | % S [16]: 73.3% | MIC50 [16]: 0.12 µg/mL (≈ 0.32 µM) | MIC90 [16]: 2 µg/mL (≈ 5.33 µM) | MIC Range [16]: 0.03 to 8 µg/mL | % S [17]: 100.0% | MIC50 [17]: 0.12 µg/mL (≈ 0.32 µM) | MIC90 [17]: 0.25 µg/mL (≈ 0.666 µM) | MIC Range [17]: 0.03 to 0.25 µg/mL | MIC90 ([18]; MRSE, S. epidermidis MRSE-CR, N 24): > 8 µg/mL | MIC90 ([18]; MRSE, S. epidermidis MRSE-CS, N 27): 0.25 µg/mL | MIC90 ([18]; S. epidermidis MSSE-CR, N 10): 8 µg/mL | MIC90 ([18]; S. epidermidis MSSE-CS, N 50): 0.25 µg/mL | MIC Range ([19]; Bacteroides fragilis (N = 20)): 1 to 16 µg/mL | MIC50 ([19]; Bacteroides fragilis, Bacteroides fragilis (N = 20), read-out: MIC50): 2 µg/mL (≈ 5.33 µM) | MIC90 ([19]; Bacteroides fragilis, Bacteroides fragilis (N = 20), read-out: MIC90): 4 µg/mL (≈ 10.7 µM) | MIC Range ([19]; Clostridium perfringens (N = 21)): 0.5 to 1 µg/mL | MIC50 [19, 35]: 1 µg/mL (≈ 2.66 µM) | MIC90 [19, 35]: 1 µg/mL (≈ 2.66 µM) | MIC50 ([19]; Cutibacterium acnes, Propionibacterium acnes (N = 21), read-out: MIC50): 0.25 µg/mL (≈ 0.666 µM) | MIC90 ([19]; Cutibacterium acnes, Propionibacterium acnes (N = 21), read-out: MIC90): 0.5 µg/mL (≈ 1.33 µM) | MIC50 ([19]; Fusobacterium spp. (N = 21), read-out: MIC50): 1 µg/mL (≈ 2.66 µM) | MIC90 ([19]; Fusobacterium spp. (N = 21), read-out: MIC90): 4 µg/mL (≈ 10.7 µM) | MIC50 ([19]; Prevotella spp. (N = 20), read-out: MIC50): 8 µg/mL (≈ 21.3 µM) | MIC90 ([19]; Prevotella spp. (N = 20), read-out: MIC90): 16 µg/mL (≈ 42.6 µM) | MIC Range ([19]; Propionibacterium acnes (N = 21)): 0.25 to 0.5 µg/mL | % S [20, 36]: 100.0% | MIC Range [20, 36]: ≦0.004-0.015 μg/mL | % S [20, 37]: 100.0% | MIC Range [20, 37]: ≦0.004-0.015 μg/mL | % S [20, 38]: 100.0% | MIC Range [20, 38]: ≦0.004-0.015 μg/mL | MIC50 [20, 36]: 0.008 µg/mL (≈ 0.0213 µM) | MIC90 [20, 36]: 0.008 µg/mL (≈ 0.0213 µM) | MIC50 [20, 37]: 0.008 µg/mL (≈ 0.0213 µM) | MIC90 [20, 37]: 0.008 µg/mL (≈ 0.0213 µM) | MIC50 [20, 38]: 0.008 µg/mL (≈ 0.0213 µM) | MIC90 [20, 38]: 0.008 µg/mL (≈ 0.0213 µM) | MIC50 ([21]; Legionella pneumophila): 0.03 µg/mL (≈ 0.0799 µM) | MIC90 ([21]; Legionella pneumophila): 0.06 µg/mL (≈ 0.16 µM) | MIC Range ([21]; Legionella pneumophila (N = 50)): 0.015 to 0.06 µg/mL
